Measurements taken from patent US12194039B2, “Methods of treating heart failure by administering omecamtiv mecarbil” (Cytokinetics, Inc., priority 2020, dated 2025).
Entries after “also recorded” stand apart in the source; their conditions may differ.

What was measured:
P-gp = P-gp (Homo sapiens, UniProt P08183); assay: Transporter substrate assessment; assay type: in vitro ADME; details: result in words
BCRP [1] = target: T1, BCRP (Homo sapiens, UniProt Q9UNQ0); assay: Clinical studies and physiologically based pharmacokinetic modeling of OM as perpetrator; assay type: in vivo; set-up: from tissue; details: clinical studies and PBPK modeling; result in words
T1 sequence (Q9UNQ0 1-655): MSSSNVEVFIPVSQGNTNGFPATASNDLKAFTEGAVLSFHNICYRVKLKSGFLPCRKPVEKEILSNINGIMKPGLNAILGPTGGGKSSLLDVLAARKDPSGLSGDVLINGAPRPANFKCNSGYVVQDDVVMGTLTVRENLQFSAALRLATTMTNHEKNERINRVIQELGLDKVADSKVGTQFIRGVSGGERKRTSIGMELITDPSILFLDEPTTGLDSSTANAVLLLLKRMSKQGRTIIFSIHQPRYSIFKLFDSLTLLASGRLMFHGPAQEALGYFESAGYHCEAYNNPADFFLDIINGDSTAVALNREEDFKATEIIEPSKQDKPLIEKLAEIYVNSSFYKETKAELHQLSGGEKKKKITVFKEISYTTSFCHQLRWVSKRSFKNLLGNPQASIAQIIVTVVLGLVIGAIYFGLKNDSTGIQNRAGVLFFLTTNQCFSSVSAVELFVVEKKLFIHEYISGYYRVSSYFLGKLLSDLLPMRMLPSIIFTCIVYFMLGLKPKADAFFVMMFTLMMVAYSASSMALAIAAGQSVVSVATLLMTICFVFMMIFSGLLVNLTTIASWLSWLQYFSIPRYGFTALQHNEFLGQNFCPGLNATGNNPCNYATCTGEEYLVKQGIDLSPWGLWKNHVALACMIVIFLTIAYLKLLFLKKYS
Text: (§1) OM may be administered with drugs that are substrates of CYP3A4, CYP2C8, P-gp or BCRP.

patients with HFrEF = details: result in words, cited from earlier work
CYP2C8 = target: T2, CYP2C8 (Homo sapiens, UniProt P10632); assay: Clinical studies and physiologically based pharmacokinetic modeling of OM as perpetrator; assay type: in vivo; set-up: from tissue; details: clinical studies and PBPK modeling; result in words
T2 sequence (P10632 1-490): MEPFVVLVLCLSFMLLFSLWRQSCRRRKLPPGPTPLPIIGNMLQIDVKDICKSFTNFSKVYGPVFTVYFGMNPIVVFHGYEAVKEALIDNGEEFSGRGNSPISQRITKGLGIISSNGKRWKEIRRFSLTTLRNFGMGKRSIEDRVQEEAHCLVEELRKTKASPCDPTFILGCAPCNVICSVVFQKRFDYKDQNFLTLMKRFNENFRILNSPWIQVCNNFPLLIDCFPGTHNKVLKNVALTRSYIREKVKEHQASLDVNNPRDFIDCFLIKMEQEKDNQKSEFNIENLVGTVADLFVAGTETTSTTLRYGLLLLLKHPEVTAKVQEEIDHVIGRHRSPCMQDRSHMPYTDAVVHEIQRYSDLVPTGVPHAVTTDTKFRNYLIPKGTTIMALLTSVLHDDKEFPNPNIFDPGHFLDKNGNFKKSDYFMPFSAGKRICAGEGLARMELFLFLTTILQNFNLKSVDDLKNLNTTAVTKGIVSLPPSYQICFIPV
Text: as §1

[2] = Effect of food on OM systemic exposure; assay type: in vivo, human; details: healthy subjects; result in words
BCRP [3] = target: T1, BCRP; assay: In vitro inhibition by OM; assay type: in vitro ADME; details: result in words
[4] = Single 35 mg dose of radiolabeled OM: blood to plasma ratio and excretion; assay type: in vivo, human; details: oral radiolabeled OM, healthy subjects
Text: The volume of distribution at steady state was approximately 4.8-6.6 L/kg.
Clearance of OM after oral administration was primarily through metabolism in the liver. […] Following oral administration of radiolabeled OM to healthy subjects, approximately 49% of the dose was excreted in urine (primarily as metabolites with 8% of parent compound recovered) and 38% in feces (primarily as unchanged drug).

MATE 2-K = MATE 2-K (Homo sapiens, UniProt Q86VL8); assay: In vitro inhibition by OM; assay type: in vitro ADME; details: result in words
Sequence of MATE 2-K (Q86VL8 1-566 isoform Q86VL8-3): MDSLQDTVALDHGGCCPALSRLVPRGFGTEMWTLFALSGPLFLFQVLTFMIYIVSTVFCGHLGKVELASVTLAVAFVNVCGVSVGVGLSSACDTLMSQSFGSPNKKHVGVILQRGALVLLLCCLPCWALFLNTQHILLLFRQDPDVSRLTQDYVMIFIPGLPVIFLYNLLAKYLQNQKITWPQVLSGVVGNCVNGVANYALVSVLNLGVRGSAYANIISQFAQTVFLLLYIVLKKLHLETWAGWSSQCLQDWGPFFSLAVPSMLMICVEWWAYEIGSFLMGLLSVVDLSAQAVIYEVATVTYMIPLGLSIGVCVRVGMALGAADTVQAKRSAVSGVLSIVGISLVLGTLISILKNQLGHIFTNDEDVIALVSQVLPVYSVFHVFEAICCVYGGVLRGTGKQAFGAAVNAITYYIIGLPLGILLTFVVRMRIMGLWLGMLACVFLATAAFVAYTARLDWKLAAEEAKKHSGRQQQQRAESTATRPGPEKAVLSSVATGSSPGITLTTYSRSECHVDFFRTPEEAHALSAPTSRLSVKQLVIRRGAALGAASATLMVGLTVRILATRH

Sequence of P-gp (P08183 whole entry): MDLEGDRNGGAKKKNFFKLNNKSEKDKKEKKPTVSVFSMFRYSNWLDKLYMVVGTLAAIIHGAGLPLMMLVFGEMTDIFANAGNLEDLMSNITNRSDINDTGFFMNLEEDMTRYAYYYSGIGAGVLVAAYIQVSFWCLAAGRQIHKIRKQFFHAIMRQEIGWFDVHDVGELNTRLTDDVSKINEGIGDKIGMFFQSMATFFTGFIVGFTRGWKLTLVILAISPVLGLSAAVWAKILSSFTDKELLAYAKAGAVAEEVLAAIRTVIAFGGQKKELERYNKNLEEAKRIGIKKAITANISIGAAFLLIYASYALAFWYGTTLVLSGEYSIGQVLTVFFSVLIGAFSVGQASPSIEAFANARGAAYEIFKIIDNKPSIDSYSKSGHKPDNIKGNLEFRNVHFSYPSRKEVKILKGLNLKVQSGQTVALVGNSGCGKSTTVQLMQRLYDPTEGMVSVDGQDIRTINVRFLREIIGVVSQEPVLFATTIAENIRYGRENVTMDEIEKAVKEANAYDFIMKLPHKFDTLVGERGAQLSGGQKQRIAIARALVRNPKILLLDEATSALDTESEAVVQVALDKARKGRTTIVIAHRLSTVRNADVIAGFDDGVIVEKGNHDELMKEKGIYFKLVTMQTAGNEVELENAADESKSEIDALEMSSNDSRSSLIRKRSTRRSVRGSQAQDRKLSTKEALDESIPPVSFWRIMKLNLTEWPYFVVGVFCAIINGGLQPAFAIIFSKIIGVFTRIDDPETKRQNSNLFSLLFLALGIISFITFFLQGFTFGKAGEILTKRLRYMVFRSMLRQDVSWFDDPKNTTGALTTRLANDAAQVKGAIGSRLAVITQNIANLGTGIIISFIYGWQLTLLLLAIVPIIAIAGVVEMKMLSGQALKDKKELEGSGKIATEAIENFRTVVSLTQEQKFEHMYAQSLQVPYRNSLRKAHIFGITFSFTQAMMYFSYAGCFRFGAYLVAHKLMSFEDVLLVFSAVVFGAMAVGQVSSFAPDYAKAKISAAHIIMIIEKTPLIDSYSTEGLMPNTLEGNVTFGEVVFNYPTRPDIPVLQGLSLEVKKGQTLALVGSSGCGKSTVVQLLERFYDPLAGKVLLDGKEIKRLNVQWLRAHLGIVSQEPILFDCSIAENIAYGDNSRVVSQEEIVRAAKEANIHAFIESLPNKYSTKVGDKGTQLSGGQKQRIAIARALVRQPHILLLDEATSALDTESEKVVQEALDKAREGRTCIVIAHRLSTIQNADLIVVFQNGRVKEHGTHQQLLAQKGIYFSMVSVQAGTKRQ

COC(=O)N1CCN(Cc2cccc(NC(=O)Nc3ccc(C)nc3)c2F)CC1 [omecamtiv mecarbil]
Substrate of P-gp (P-gp): substrate
Inhibition of BCRP (BCRP [1]): weak inhibitor
Left ventricular systolic and diastolic volumes, natriuretic peptide concentrations and heart rate (patients with HFrEF; oral therapy for 20 weeks, chronic HFrEF): reduced left ventricular systolic and diastolic volumes, plasma natriuretic peptide concentrations and heart rate; also recorded: decreased left ventricular systolic and diastolic volumes
Cardiac performance (patients with HFrEF; short-term intravenous and longer-term oral therapy): improved cardiac performance
Inhibition of CYP2C8 (CYP2C8): weak inhibitor
Effect of a high-fat, high-calorie meal on systemic exposure [2]: no clinically significant effect
Inhibition of BCRP (BCRP [3]): inhibitor
Parent compound recovered in urine [4]: 8%
Dose excreted in urine ([4]; primarily as metabolites): approximately 49%
Dose excreted in feces ([4]; primarily as unchanged drug): ~38%
Inhibition of MATE 2-K (MATE 2-K): inhibitor
